As a reminder, the melting point is the temperature, or range, at which the solid turns liquid. One may read the IC50 as the concentration that inhibits the measured activity by half. A higher IC50 goes with weaker potency.

The target in series [1] is T1, PDE9 (Homo sapiens, UniProt O76083).
T1 construct: made in house
Briefly: PDE9-inhibiting activity (SPA, 3H-cGMP degradation). The format is biochemical. The protocol:
The PDE9 used in the present experiment was expressed/purified by the method as in, for example, Guipponi et al., and Fisher et., al. (Fisher, D. A., et al., J. Biol. Chem., 273: pp. 15559-15564 (1998), Guipponi, M., et al., Hum. Genet., 103: pp. 386-392 (1998)).
The PDE9-inhibiting activity was measured by the following method. That is, to a buffer solution containing tris(hydroxymethyl)aminomethane-hydrochloric acid (40 mM, pH 8.0), magnesium chloride (5 mM), and 2-mercaptoethanol (4 mM) were added cGMP (1 μM) and ^3H-cGMP (0.33 μCi/ml) to give a substrate buffer solution. A test substance solution and an enzyme solution which had been adjusted to an optimal concentration were added thereto to perform a reaction at 30° C. The enzyme reaction was stopped by the addition of Scintillation Proximity Assay (SPA) Beads (GE Healthcare, UK) containing 5 mM 3-isobutyl-1-methylxanthine (IBMX). For the enzyme activity, the amount of 5′-GMP, which is a reaction degradation product bound to SPA beads, was measured with a TopCount microplate reader (Hewlett Packard, USA).
The inhibitory rate was calculated by taking the radioactivity of the control containing no test substance as (A), taking the radioactivity of the blank containing no enzyme as (B), and taking the radioactivity of the test substance as (C), and using the following equation. Inhibitory rate=100−{(C)−(B)/(A)−(B)}×100(%)

SMILES strings stand for the structures.

T1 sequence (O76083 whole entry): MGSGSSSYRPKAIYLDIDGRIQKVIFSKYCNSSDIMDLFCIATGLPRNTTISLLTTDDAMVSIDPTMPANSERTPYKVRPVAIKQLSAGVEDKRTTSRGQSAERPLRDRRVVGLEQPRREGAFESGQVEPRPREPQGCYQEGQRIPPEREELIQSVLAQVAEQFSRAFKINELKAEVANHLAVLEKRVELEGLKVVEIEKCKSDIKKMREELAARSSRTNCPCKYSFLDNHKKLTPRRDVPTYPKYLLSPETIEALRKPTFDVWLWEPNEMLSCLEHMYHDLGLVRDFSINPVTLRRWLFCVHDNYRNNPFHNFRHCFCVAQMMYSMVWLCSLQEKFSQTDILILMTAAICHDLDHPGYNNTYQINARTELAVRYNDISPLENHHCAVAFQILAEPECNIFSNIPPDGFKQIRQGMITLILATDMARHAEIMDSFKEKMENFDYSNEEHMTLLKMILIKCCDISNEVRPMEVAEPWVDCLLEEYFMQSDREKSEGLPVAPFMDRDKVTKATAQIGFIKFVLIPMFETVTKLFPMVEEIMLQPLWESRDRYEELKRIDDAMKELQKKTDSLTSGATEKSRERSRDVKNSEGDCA

Consider `Cc1cc2c(cc1C(=O)N1Cc3ccccc3C1)[nH]c(=O)c1nnc([C@@H]3CCC[C@@H]3O)n12` (racemic), for which the melting point was 316 °C (dec.).
On the same count and under the same terms, under `Cc1cc2c(cc1C(=O)N1Cc3ccccc3C1)[nH]c(=O)c1cnc([C@@H]3CCC[C@@H]3O)n12` (racemic) stands 301 to 302 °C (dec.); under `Cc1cc2c(cc1C(=O)N1CCc3cc(Cl)ccc31)[nH]c(=O)c1cnc([C@@H]3CCC[C@@H]3O)n12` (racemic) [Example 343], 238 to 240 °C.
As for `Cc1cc2c(cc1C(=O)N1CCc3ccccc31)[nH]c(=O)c1cnc(C3CCCC3)n12` [Example 3, 1-cyclopentyl-7-(2,3-dihydro-1H-indol-1-ylcarbonyl)-8-methylimidazo[1,5-a]quinoxalin-4(5H)-one], the melting point is 291 °C (dec.). This compound came in with an IC50 in series [1] of 6.7 nM.
Take `O=C(c1ccc2c(c1)[nH]c(=O)c1nnc(-c3ccc(O)cc3)n12)N1CCc2c(Cl)cccc2C1` [Example 4, 7-[(5-chloro-3,4-dihydroisoquinolin-2(1H)-yl)carbonyl]-1-(4-hydroxyphenyl)[1,2,4]triazolo[4,3-a]quinoxalin-4(5H)-one]: the melting point is 373 °C (dec.). In series [1], 19 nM corresponded to half-maximal inhibition (IC50).
In turn, `Cc1cc2c(cc1C(=O)N1CCc3ccccc3C1c1ccncc1)[nH]c(=O)c1nnc(-c3ccc(O)c(Cl)c3)n12` (stereo not shown) [Example 5, 1-(3-chloro-4-hydroxyphenyl)-8-methyl-7-[(1-pyridin-4-yl-3,4-dihydroisoquinolin-2(1H)-yl)carbonyl][1,2,4]triazolo[4,3-a]quinoxalin-4(5H)-one] came in with an IC50 in series [1] of 2.3 nM.
`Cc1cc2c(cc1C(=O)N1CCc3cc(Cl)ccc31)[nH]c(=O)c1nnc(C(F)C3CC3)n12.Cl` (stereo not shown) [Example 11, 7-[(5-chloro-2,3-dihydro-1H-indol-1-yl)carbonyl]-1-[cyclopropyl(fluoro)methyl]-8-methyl[1,2,4]triazolo[4,3-a]quinoxalin-4(5H)-one] showed a melting point of 309 to 311 °C. Also, in series [1], the IC50 worked out at 3.1 nM.
`Cc1cc2c(cc1C(=O)N1CCc3cc(F)ccc31)[nH]c(=O)c1nnc(C3CCC(F)(F)CC3)n12.Cl` [Example 13, 1-(4,4-difluorocyclohexyl)-7-[(5-fluoro-2,3-dihydro-1H-indol-1-yl)carbonyl]-8-methyl[1,2,4]triazolo[4,3-a]quinoxalin-4(5H)-one hydrochloride]: the melting point was 220 °C (dec.). In series [1], this compound returned an IC50 of 22 nM.
With `Cc1cc2c(cc1C(=O)N1Cc3ccccc3C1)[nH]c(=O)c1cnc(C3CCOCC3)n12` [Example 27], the melting point is 312 °C (dec.). In series [1], this compound displayed an IC50 of 18 nM.
In turn, `Cc1cc2c(cc1C(=O)N1CCc3sccc3C1)[nH]c(=O)c1cnc(C3CCOCC3)n12.Cl` [Example 35] had a melting point of 283 to 285 °C. In addition, inhibition in series [1] was half-maximal at 12 nM (IC50).
Taken in the same sequence, the figures for `COC(=O)c1cccc2c1CN(C(=O)c1cc3[nH]c(=O)c4cnc(C5CCOCC5)n4c3cc1C)CC2.Cl` [Example 68] were 192 to 194 °C and 3.5 nM.
`Cc1cc2c(cc1C(=O)N1CCc3nc4ncccc4cc3C1)[nH]c(=O)c1cnc(C3CCOCC3)n12` [Example 71] yielded an IC50 in series [1] of 9.2 nM.
As for `Cc1cc2c(cc1C(=O)N1CCc3cc(F)ccc31)[nH]c(=O)c1cnc(C3CCOCC3)n12.Cl` [Example 76], the melting point lay in the range of 297 to 298 °C. In series [1], it took 2.5 nM to reach half-maximal inhibition (IC50).
Taken in the same sequence, the figures for `Cc1cc2c(cc1C(=O)N1CCc3cc(Cl)ccc31)[nH]c(=O)c1cnc(C3CCOCC3)n12.Cl` [Example 77] were 265 to 266 °C and 1 nM.
For `Cc1cc2c(cc1C(=O)N1CCc3cc(S(=O)(=O)N(C)C)ccc31)[nH]c(=O)c1cnc(C3CCOCC3)n12.Cl` [Example 80], the melting point was 209 to 212 °C. In series [1], it took 2.6 nM to reach half-maximal inhibition (IC50).
For `Cc1cc2c(cc1C(=O)N1CCc3c(Cl)cccc3C1)[nH]c(=O)c1nnc(C3CCCC3)n12` [Example 91], in that order: 236 to 237 °C and 20 nM.
Turning to `Cc1cc2c(cc1C(=O)N1Cc3ccccc3C1)[nH]c(=O)c1nnc(C3CCOCC3)n12` [Example 93], the melting point is 305 °C (dec.). In series [1], half-maximal inhibition (IC50) required 15 nM.
Take `Cc1cc2c(cc1C(=O)N1Cc3ccc(Cl)cc3C1)[nH]c(=O)c1cnc(C3CCOCC3)n12.Cl` [Example 103]: the melting point lay within 210 to 214 °C. The compound also returned an IC50 in series [1] of 11 nM.
As for `CCCc1nnc2c(=O)[nH]c3cc(C(=O)N(C)Cc4cccc(Cl)c4)ccc3n12` [Example 134], in series [1], the IC50 was found to be 950 nM.
`COc1cc2c(cc1C(=O)N1Cc3ccccc3C[C@@H]1CO)[nH]c(=O)c1cnc(C3CCCCC3)n12` [Example 220]: the melting point is 215 °C (dec.). In series [1], half-maximal inhibition (IC50) required 18 nM.
Regarding `Cc1cc2c(cc1C(=O)N1CCc3cc(F)c(Cl)cc31)[nH]c(=O)c1nnc(C3CCCC3)n12.Cl` [Example 248], the melting point lay within 276 to 278 °C. Also, the 50% inhibitory concentration (IC50) in series [1] is 5.8 nM.
`Cl.O=C(c1cc2[nH]c(=O)c3cnc(C4CCOCC4)n3c2cc1C1CC1)N1CCc2cc(Cl)ccc21` [Example 263]: the melting point is 339 to 342 °C (dec.). This compound registered an IC50 in series [1] of 0.9 nM.
Turning to `COc1cc2c(cn1)N(C(=O)c1cc3[nH]c(=O)c4cnc(C5CCOCC5)n4c3cc1OC)CC2` [Example 277], the melting point is 237 °C (dec.). The same compound showed an IC50 in series [1] of 16 nM.
`O=C(c1cc2[nH]c(=O)c3cnc(C4CCOCC4)n3c2cc1Cl)N1CCc2cccnc21` [Example 279]: the melting point was 275 °C (dec.). In series [1], this compound registered an IC50 of 10 nM.
Take `Cc1cc2c(cc1C(=O)N1CCc3cc(Cl)ccc31)[nH]c(=O)c1nnc(C3CCCOC3)n12.Cl` (stereo not shown) [Example 281]: the melting point is 298 to 301 °C. Further, the midpoint of inhibition in series [1], the IC50, lay at 1.6 nM.
Regarding `Cc1cc2c(cc1C(=O)N1CCc3cc(F)c(F)cc31)[nH]c(=O)c1nnc(C3CCCC3)n12.Cl` [Example 289], the melting point is 210 to 212 °C (dec.). Also, inhibition in series [1] was half-maximal at 3.9 nM (IC50).
`Cc1cc2c(cc1C(=O)N1CCc3cc(Cl)c(F)cc31)[nH]c(=O)c1cnc(C3CCOCC3)n12.Cl` [Example 290] had a melting point of 292 to 294 °C. The same compound had an IC50 in series [1] of 1 nM.
Compound `Cc1cc2c(cc1C(=O)N1CCc3cc(Cl)c(F)cc31)[nH]c(=O)c1nnc(C3CCOCC3)n12` [Example 291] yielded a melting point of 309 to 311 °C. In series [1], the midpoint of inhibition, the IC50, lay at 2.8 nM.
Take `COCc1cc2c(cc1C(=O)N1CCc3cc(Cl)ccc31)[nH]c(=O)c1cnc(C3CCOCC3)n12.Cl` [Example 300]: the melting point is 298 to 301 °C (dec.). The compound further gave an IC50 in series [1] of 0.8 nM.
Taken in the same sequence, the figures for `Cc1cc2c(cc1C(=O)N1CCc3cc(Br)cnc31)[nH]c(=O)c1nnc(C3CCOCC3)n12` [Example 306] were 222 to 223 °C and 4.2 nM.
Take `CN(C)CCOc1cc2c(cc1C(=O)N1CCc3cc(F)ccc31)[nH]c(=O)c1cnc(C3CCOCC3)n12` [Example 309]: the melting point was 216 to 219 °C (dec.). Also, the midpoint of inhibition in series [1], the IC50, lay at 4.1 nM.
For `Cc1cc2c(cc1C(=O)N1CCc3cc(Br)cnc31)[nH]c(=O)c1nnc(C3CCOC3)n12.Cl` (stereo not shown) [Example 312], in that order: 242 to 243 °C and 20 nM.
Turning to `Cc1cc2c(cc1C(=O)N1CCc3cc(F)ccc31)[nH]c(=O)c1cnc(C3CCCOC3)n12` (stereo not shown) [Example 318], in series [1], the IC50 was 5.9 nM.
`COCc1cc2c(cc1C(=O)N1CCc3cc(Br)cnc31)[nH]c(=O)c1cnc(C3CCOCC3)n12.Cl` [Example 320]: the melting point was 310 °C (dec.). In addition, it took 1 nM to reach half-maximal inhibition in series [1] (IC50).
`Cc1cc2c(cc1C(=O)N1CCc3cc(F)ccc31)[nH]c(=O)c1nnc(C3(C)CCOCC3)n12.Cl` [Example 322] displayed a melting point of 243 to 245 °C. In addition, the IC50 in series [1] was 29 nM.
With `Cc1cc2c(cc1C(=O)N1CCc3cc(Cl)c(F)cc31)[nH]c(=O)c1nnc(C3CCCC3)n12` [Example 324], it took 1.7 nM to reach half-maximal inhibition in series [1] (IC50).
In the case of `Cl.O=C(c1cc2[nH]c(=O)c3cnc(C4CCOCC4)n3c2cc1OCCO)N1CCc2cc(Cl)ccc21` [Example 326], the melting point is 303 to 306 °C (dec.). In addition, the IC50 in series [1] was determined as 1.2 nM.
For `Cc1cc2c(cc1C(=O)N1CCc3cc(Cl)ccc31)[nH]c(=O)c1cnc([C@H]3CC[C@@H](O)CC3)n12.Cl` [Example 330], in that order: 204 to 206 °C and 1.2 nM.
For `COCc1cc2c(cc1C(=O)N1CCc3cc(OC)ncc31)[nH]c(=O)c1cnc(C3CCOCC3)n12` [Example 333], in that order: 208 °C (dec.) and 2.9 nM.
As to `Cc1cc2c(cc1C(=O)N1CCc3cc(Br)cnc31)[nH]c(=O)c1nnc(C3CC(F)(F)C3)n12` [Example 346], in series [1], the IC50 stood at 27 nM.
Same read-out and setting: under `Cc1cc2c(cc1C(=O)N1CCc3cc(F)cnc31)[nH]c(=O)c1nnc(C3CCOCC3)n12` [Example 352] stands 12 nM; under `Cc1cc2c(cc1C(=O)N1CC(C)(C)c3cc(Cl)ccc31)[nH]c(=O)c1cnc(C3CCOCC3)n12` [Example 516], 0.8 nM.

Values taken from US8674096B2, “Substituted imidazo[1,5-a]quinoxalin-4-ones as phosphodiesterase 9 inhibitors” (priority 2009, dated 2014).
